Laboratory results taken from publication PMC5053890 (Bioorganic & medicinal chemistry, 2016).

Target: T1, GVIA iPLA2 (Homo sapiens, UniProt O60733)
T1 sequence (O60733 1-806): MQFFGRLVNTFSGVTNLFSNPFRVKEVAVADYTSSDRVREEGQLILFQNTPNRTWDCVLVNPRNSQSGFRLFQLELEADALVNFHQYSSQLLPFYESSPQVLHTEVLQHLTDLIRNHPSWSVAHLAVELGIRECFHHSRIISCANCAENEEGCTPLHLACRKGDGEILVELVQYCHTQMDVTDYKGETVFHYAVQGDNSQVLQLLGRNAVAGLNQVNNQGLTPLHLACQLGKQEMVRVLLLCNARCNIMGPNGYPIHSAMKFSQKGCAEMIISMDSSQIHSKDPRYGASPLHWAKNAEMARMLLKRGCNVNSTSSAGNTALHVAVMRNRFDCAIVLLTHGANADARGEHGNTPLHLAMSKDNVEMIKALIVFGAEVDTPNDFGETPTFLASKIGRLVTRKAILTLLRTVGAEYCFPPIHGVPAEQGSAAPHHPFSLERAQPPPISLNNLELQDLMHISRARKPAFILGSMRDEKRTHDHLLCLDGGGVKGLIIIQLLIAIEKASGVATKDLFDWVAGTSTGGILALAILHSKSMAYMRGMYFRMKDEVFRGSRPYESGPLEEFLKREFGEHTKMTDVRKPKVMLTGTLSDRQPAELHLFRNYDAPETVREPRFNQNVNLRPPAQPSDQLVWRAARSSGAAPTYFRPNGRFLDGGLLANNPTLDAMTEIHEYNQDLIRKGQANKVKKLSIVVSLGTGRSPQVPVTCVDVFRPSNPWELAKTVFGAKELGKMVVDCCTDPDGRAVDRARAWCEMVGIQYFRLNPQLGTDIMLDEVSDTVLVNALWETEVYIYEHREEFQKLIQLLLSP
Assay: hydrogen/deuterium exchange mass spectrometry
Type: binding

Structure (SMILES): CCCCCCCCSCC(=O)C(F)(F)F [Compound 3]
- Average % Deuteration (Presence of OTFP) (peptide region 481-493): 27%
- Average % Deuteration (Presence of OTFP) (peptide region 514-524): 48%
- Average % Deuteration (Presence of OTFP) (peptide region 542-562): 51%
- Average % Deuteration (Presence of OTFP) (peptide region 630-655): 48%
- Average % Deuteration (Presence of OTFP) (peptide region 656-664): 49%
- Average % Deuteration (Presence of OTFP) (peptide region 770-778): 43%
